Experimental data: publication PMC7823652 (Viruses, 2020)
Like-named read-outs stand apart in the source and are kept apart here.

Columns and labels:
ZIKV [1] = assay: Time-of-addition assay in ZIKV-infected U87 cells; type: cell-based, Zika virus (strain H/PF/2013)
in vitro = type: cell-based; conditions: African green monkey
ZIKV [2] = assay: Viral budding assay in ZIKV-infected U87 cells; type: cell-based, Zika virus (strain H/PF/2013)
[3] = Screen cytotoxicity by nuclei count in ZIKV-infected U87 cells; type: cell-based; conditions: human, ZIKV-infected U87 cells
ZIKV [4] = assay: End-point dilution assay by CPE, ZIKV-infected Vero cells; type: cell-based, Zika virus (strain H/PF/2013); conditions: ZIKV MOI 0.1, increasing doses, 24 h
Vero cells = assay: Cell viability by nuclei count in ZIKV-infected Vero cells; type: cell-based, African Green Monkey
ZIKV [5] = assay: ZIKV-induced cytopathic effect in U87 cells (immunofluorescence imaging); type: cell-based, Zika virus (strain H/PF/2013); conditions: U87, ZIKV MOI 1, 10 μM TH6744, 24, 48 or 72 h
U87 cells [6] = assay: Cell viability by nuclei count in ZIKV-infected U87 cells; type: cell-based, Human
ZIKV [7] = assay: Antiviral dose-response in ZIKV-infected Vero cells; type: cell-based, Zika virus (strain H/PF/2013); conditions: Zika virus
[8] = Cell viability assay (Resazurin), uninfected U87 cells; type: cell-based, Human; conditions: human, read-out: Viability CC50 [µM] (95%-CI)
U87 cells [9] = assay: as above; type: cell-based, Human; conditions: Homo sapiens, U-87 MG; U87, Resazurin, all measured time points (24, 48 or 72 h); read-out: IC50 (toxicity profile, cellular viability)
ZIKV [10] = assay: Image-based phenotypic antiviral screen in ZIKV-infected U87 cells; type: cell-based, Zika virus (strain H/PF/2013); conditions: for inhibition at 10 µM: Zika virus, U-87 MG
ZIKV [11] = assay: Time course of ZIKV replication in U87 cells (vRNA, infected cells, titer)
HAZV = assay: microbe, parasite or virus in culture; type: cell-based, Hazara virus (isolate JC280); conditions: for inhibition at 10 µM: Hazara virus, SW13, 24 h
human brain organoids = assay: Viability and structure of ZIKV-infected human cerebral organoids; conditions: ZIKV 2 × 10^4 particles/organoid, 5 μM, 7 dpi and 10 dpi
ZIKV [12] = assay: ZIKV infection (NS1 intensity) and viral titer in human cerebral organoids; type: cell-based, Zika virus (strain H/PF/2013); conditions: ZIKV 2 × 10^4 particles/organoid, 5 μM
ZIKV [13] = assay: Antiviral dose-response in ZIKV-infected U87 cells (infected cells, viral titer); type: cell-based, Zika virus (strain H/PF/2013); conditions: Zika virus, U-87 MG; for IC50: ZIKV; for EC50: U87, ZIKV MOI 1, 48 h
[14] = U87, ZIKV MOI 10, 22 h then 5 μM for 2 h
[15] = U87, ZIKV MOI 10, 22 h then 10 μM for 2 h

With `CCOC(=O)c1cnn(-c2cccc3c2[nH]c(=O)n3C2CCN(C(=O)Nc3ccc(I)cc3)CC2)c1` [TH6744] the “reduction on viral titer, entry” value (ZIKV [1]; U87, ZIKV MOI 10, 10 μM TH6744, 1 h pre-treatment and during inoculation, titer at 24 hpi) was 50%, the “viral titer, post-inoculation” value (ZIKV [1]; U87, ZIKV MOI 10, 10 μM TH6744 directly after inoculation for 24 h) was “pronounced reduction of viral titer” and the “titer reduction, virus budding” value (ZIKV [1]; U87, ZIKV MOI 10, 10 μM TH6744 from 22 h after inoculation for 2 h) was 50%. The CC50 at 24 h (in vitro) was over 50 µM, the CC50 at 48 h (in vitro) was over 50 µM and the CC50 at 72 h (in vitro) was over 50 µM. For the same compound, the “infectivity of pre-budding and post-budding particles” value (ZIKV [2]; U87, ZIKV MOI 10, 2 h TH6744 treatment (5 or 10 μM), dose-dependent) was “reduced to a similar extent”, the “Fraction of infectious ZIKV particles: Extracellular” value (ZIKV [2]; [14]) was 94.30% and the “Fraction of infectious ZIKV particles: Intracellular” value (ZIKV [2]; [14]) was 5.70%. For the same compound, the “Fraction of infectious ZIKV particles: Extracellular” value (ZIKV [2]; [15]) was 93.44%, the “Fraction of infectious ZIKV particles: Intracellular” value (ZIKV [2]; [15]) was 6.56% and the viability at 48 h, 10 µM ([3]; ZIKV MOI 10, compound 10 µM, 48 h, nuclei count relative to DMSO) was 105%. For the same compound, the viability at 10 µM ([3]; screen) was 105%, the “viral titer measured by CPEs” value (ZIKV [4]) was “reduced viral titer in a dose-dependent manner” and the EC50 (Vero cells; Chlorocebus sabaeus, MOI 10, 24 h) was over 50 µM. It also gave an EC50 (Vero cells; Chlorocebus sabaeus, MOI 10, 48 h) of over 50 µM, an EC50 (Vero cells; MOI 1, 24 h) of over 50 µM and an EC50 (Vero cells; MOI 1, 48 h) of over 50 µM. For the same compound, the “effect on ZIKV-induced CPE in U87 cells” value (ZIKV [5]) was “reversed ZIKV-induced CPE”, the EC50 (U87 cells [6]; Homo sapiens, U-87 MG, U87, ZIKV MOI 1, 48 h, nuclei count, read-out: EC50 [μM] Living cells) was over 50 µM and the EC50 (U87 cells [6]; Homo sapiens, U-87 MG, ZIKV, U87, MOI 10, 24 h, read-out: Viability (nuclei count) EC50) was over 50 µM. For the same compound, the EC50 (U87 cells [6]; Homo sapiens, U-87 MG, ZIKV, U87, MOI 10, 48 h, read-out: Viability (nuclei count) EC50) was over 50 µM, the “viability (nuclei count)” value (U87 cells [6]; U87, ZIKV MOI 1, 24 hpi) was “without affecting the viability” and the EC50 (U87 cells [6]; ZIKV, U87, MOI 1, 24 h, read-out: Viability (nuclei count) EC50) was over 50 µM. For the same compound, the EC50 (U87 cells [6]; ZIKV, U87, MOI 1, 48 h, read-out: Viability (nuclei count) EC50) was over 50 µM, the IC50 (ZIKV [7]; 24 h, MOI 1, 24 h, read-out: Antiviral on primary infection IC50) was 48.4 µM and the IC50 (ZIKV [7]; 24 h, MOI 1, 24 h, read-out: Antiviral on titer (µM) IC50) was 3.9 µM. It also gave an IC50 (ZIKV [7]; 24 h, MOI 10, 24 h, read-out: Antiviral on primary infection IC50) of over 50 µM, an IC50 (ZIKV [7]; 24 h, MOI 10, 24 h, read-out: Antiviral on titer (µM) IC50) of 5.5 µM and an IC50 (ZIKV [7]; 48 h, MOI 1, 48 h, read-out: Antiviral on primary infection IC50) of 2.9 µM. The IC50 (ZIKV [7]; 48 h, MOI 1, 48 h, read-out: Antiviral on titer (µM) IC50) was 3.6 µM, the IC50 (ZIKV [7]; 48 h, MOI 10, 48 h, read-out: Antiviral on primary infection IC50) was 5.8 µM and the IC50 (ZIKV [7]; 48 h, MOI 10, 48 h, read-out: Antiviral on titer (µM) IC50) was 7.2 µM. For the same compound, the CC50 at 24 h ([8]; uninfected U87, 24 h) was over 50 µM, the CC50 at 48 h ([8]; uninfected U87, 48 h) was over 50 µM and the CC50 at 72 h ([8]; uninfected U87, 72 h) was over 50 µM. For the same compound, the IC50 (U87 cells [9]) was over 50 µM, the “Viral Titer (ZIKV) (%)” value (ZIKV [10]; U87, ZIKV MOI 10, compound 10 µM, 48 h, relative to DMSO) was 5% and the “Infected Cells (U87, ZIKV) (%)” value (ZIKV [10]; ZIKV MOI 10, compound 10 µM, 48 h, relative to DMSO) was 88%. The inhibition at 10 µM (ZIKV [10]; U87, ZIKV MOI 10, compound 10 µM, 48 h, relative to DMSO, read-out: Inhibition of ZIKV titer (%)) was 95%, the inhibition at 10 µM (ZIKV [10]; U87, ZIKV MOI 10, compound 10 µM, 48 h, relative to DMSO, read-out: Inhibition of primary ZIKV infection (%)) was 12% and the “Infected Cells (U87, ZIKV)” value (ZIKV [10]; screen, U87 cells, ZIKV) was 88%. The “Viral Titer (ZIKV)” value (ZIKV [10]; screen, U87 cells, ZIKV) was 5%, the ZIKV-infected cells (ZIKV [11]; U87, ZIKV MOI 1, 24 hpi) was “no reduction” and the “reduction of extracellular vRNA levels” value (ZIKV [11]; U87, ZIKV MOI 1, 24 hpi) was 50%. For the same compound, the “reduction of viral titers” value (ZIKV [11]; U87, ZIKV MOI 1, 24 hpi) was 75%, the “intracellular ZIKV vRNA” value (ZIKV [11]; U87, ZIKV MOI 1, 24 hpi, qPCR) was “no reduction” and the “intracellular ZIKV vRNA levels” value (ZIKV [11]; U87, ZIKV MOI 1, 48 hpi) was “remained unchanged”. For the same compound, the “reduction of number of ZIKV-infected cells” value (ZIKV [11]; U87, ZIKV MOI 1, 48 hpi) was 65%, the reduction of titer (ZIKV [11]; U87, ZIKV MOI 1, 48 hpi) was 83% and the “decrease of number of ZIKV-infected cells” value (ZIKV [11]; U87, ZIKV MOI 1, 72 h exposure) was 40%. The “decrease of viral titer” value (ZIKV [11]; U87, ZIKV MOI 1, 72 h exposure) was 63%, the inhibition at 10 µM (HAZV; read-out: Inhibition of HAZV titer (%)) was 90% and the inhibition at 10 µM (HAZV; read-out: Inhibition of primary HAZV infection (%)) was 85%. The “Infected Cells (SW13, HAZV)” value (HAZV; screen, SW13 cells, HAZV) was 15%, the “Viral Titer (HAZV)” value (HAZV; screen, SW13 cells, HAZV) was 10% and the “phenotypic rescue (retained structure of organoids)” value (human brain organoids) was “phenotypic rescue”. For the same compound, the “ZIKV NS1 intensity in sectioned organoids (primary virus infection)” value (ZIKV [12]; 7 dpi) was “marked reduction”, the “reduction of ZIKV progeny particles produced by the organoids” value (ZIKV [12]; all timepoints, relative to DMSO) was 70–80% and the IC50 (ZIKV [13]; 24 h, U87, MOI 1, 24 h, read-out: Antiviral on primary infection IC50) was over 50 µM. For the same compound, the IC50 (ZIKV [13]; 24 h, U87, MOI 1, 24 h, read-out: Antiviral on titer (µM) IC50) was over 50 µM, the IC50 (ZIKV [13]; 24 h, U87, MOI 10, 24 h, read-out: Antiviral on primary infection IC50) was over 50 µM and the IC50 (ZIKV [13]; 24 h, U87, MOI 10, 24 h, read-out: Antiviral on titer (µM) IC50) was 10.3 µM. For the same compound, the IC50 (ZIKV [13]; 48 h, U87, MOI 1, 48 h, read-out: Antiviral on primary infection IC50) was 7.5 µM, the IC50 (ZIKV [13]; 48 h, U87, MOI 1, 48 h, read-out: Antiviral on titer (µM) IC50) was 4.4 µM and the IC50 (ZIKV [13]; 48 h, U87, MOI 10, 48 h, read-out: Antiviral on primary infection IC50) was 12.2 µM. It also gave an IC50 (ZIKV [13]; 48 h, U87, MOI 10, 48 h, read-out: Antiviral on titer (µM) IC50) of 9.2 µM, an EC50 (ZIKV [13]; ZIKV NS1 staining, read-out: EC50 [μM] Infected cells) of 7.5 µM and an EC50 (ZIKV [13]; end-point dilution assay, read-out: EC50 [μM] Viral titer) of 4.4 µM.
